# Data reported in ChEMBL document CHEMBL5291721, “A preclinical secondary pharmacology resource illuminates target-adverse drug reaction associations of marketed drugs” (Nat Commun, 2023).
# Tests used:
# [1] = target: T1, Gastrin/cholecystokinin type B receptor (Homo sapiens, UniProt P32239)
# T1 sequence (P32239 whole entry): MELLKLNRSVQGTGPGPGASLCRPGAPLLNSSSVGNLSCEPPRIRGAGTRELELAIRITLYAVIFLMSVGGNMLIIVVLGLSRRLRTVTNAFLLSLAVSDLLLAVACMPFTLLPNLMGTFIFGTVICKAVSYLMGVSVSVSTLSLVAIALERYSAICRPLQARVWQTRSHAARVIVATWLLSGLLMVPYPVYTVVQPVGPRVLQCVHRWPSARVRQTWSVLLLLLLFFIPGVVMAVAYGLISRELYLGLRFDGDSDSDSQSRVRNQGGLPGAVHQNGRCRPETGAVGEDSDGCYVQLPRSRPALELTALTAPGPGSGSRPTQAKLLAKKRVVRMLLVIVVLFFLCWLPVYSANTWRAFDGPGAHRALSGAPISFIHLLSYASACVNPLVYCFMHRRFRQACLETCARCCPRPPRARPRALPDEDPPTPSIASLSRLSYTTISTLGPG
# D(1A) dopamine receptor = D(1A) dopamine receptor (Homo sapiens, UniProt P21728); assay type: functional, cell-based
# Sequence of D(1A) dopamine receptor (P21728 whole entry): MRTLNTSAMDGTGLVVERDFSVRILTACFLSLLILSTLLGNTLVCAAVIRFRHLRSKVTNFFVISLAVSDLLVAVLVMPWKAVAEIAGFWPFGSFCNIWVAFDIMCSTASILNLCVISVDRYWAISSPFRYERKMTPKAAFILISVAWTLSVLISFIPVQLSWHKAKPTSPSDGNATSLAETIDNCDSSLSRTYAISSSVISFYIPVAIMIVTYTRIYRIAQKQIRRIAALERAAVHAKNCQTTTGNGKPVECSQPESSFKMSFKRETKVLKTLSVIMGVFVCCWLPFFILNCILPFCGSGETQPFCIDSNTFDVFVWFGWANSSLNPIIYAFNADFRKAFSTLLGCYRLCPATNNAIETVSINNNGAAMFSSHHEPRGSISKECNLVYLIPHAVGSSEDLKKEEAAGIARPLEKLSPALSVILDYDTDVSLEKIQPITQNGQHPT
# [2] = target: Gamma-aminobutyric acid receptor subunit alpha-1 (Rattus norvegicus, UniProt P62813); assay type: functional
# Sequence of Gamma-aminobutyric acid receptor subunit alpha-1 (P62813 whole entry): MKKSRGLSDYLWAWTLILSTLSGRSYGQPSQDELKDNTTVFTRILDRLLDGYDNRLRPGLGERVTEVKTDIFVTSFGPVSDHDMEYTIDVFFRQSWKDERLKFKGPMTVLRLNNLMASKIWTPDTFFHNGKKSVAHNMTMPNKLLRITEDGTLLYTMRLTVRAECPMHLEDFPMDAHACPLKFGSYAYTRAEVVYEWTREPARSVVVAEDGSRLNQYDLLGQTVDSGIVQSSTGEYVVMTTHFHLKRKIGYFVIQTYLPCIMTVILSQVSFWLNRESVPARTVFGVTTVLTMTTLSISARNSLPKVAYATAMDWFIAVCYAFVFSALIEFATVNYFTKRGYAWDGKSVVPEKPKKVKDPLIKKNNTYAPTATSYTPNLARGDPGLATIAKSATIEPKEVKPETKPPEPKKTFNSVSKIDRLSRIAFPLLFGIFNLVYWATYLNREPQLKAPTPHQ
# [3] = target: T2, Alpha-2A adrenergic receptor (Homo sapiens, UniProt P08913); assay type: functional, cell-based
# T2 sequence (P08913 whole entry): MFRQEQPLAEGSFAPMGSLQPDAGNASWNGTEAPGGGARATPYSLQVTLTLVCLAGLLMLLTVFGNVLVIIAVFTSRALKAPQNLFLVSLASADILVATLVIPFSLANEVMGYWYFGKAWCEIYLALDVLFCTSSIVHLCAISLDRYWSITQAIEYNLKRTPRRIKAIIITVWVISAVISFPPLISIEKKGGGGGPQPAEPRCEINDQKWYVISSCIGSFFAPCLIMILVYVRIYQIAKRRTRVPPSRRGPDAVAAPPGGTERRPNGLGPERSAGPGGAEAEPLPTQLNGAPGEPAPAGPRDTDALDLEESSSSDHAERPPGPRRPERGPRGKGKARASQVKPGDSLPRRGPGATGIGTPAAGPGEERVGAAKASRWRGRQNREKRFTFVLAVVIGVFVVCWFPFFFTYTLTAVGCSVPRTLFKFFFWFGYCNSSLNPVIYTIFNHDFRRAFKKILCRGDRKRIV
# [4] = target: Sodium-dependent dopamine transporter (Homo sapiens, UniProt Q01959)
# Sequence of Sodium-dependent dopamine transporter (Q01959 whole entry): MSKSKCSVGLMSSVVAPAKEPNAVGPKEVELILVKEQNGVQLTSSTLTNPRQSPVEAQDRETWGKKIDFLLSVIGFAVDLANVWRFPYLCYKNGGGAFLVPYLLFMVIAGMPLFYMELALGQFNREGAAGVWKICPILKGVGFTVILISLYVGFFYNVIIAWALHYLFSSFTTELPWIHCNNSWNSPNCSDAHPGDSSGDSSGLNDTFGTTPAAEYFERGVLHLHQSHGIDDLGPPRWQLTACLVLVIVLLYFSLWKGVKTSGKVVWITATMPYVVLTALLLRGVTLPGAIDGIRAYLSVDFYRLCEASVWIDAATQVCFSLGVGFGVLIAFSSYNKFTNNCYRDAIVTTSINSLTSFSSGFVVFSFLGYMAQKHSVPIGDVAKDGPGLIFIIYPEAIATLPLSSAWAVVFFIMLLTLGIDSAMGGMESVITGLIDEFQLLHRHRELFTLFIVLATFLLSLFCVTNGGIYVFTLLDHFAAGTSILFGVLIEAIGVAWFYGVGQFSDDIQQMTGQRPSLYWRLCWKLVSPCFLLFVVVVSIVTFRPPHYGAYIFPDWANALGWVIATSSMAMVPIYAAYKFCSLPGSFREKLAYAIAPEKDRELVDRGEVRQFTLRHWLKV
# [5] = target: 3',5'-cyclic-AMP phosphodiesterase 4D (Homo sapiens, UniProt Q08499); assay type: functional
# Sequence of 3',5'-cyclic-AMP phosphodiesterase 4D (Q08499 whole entry): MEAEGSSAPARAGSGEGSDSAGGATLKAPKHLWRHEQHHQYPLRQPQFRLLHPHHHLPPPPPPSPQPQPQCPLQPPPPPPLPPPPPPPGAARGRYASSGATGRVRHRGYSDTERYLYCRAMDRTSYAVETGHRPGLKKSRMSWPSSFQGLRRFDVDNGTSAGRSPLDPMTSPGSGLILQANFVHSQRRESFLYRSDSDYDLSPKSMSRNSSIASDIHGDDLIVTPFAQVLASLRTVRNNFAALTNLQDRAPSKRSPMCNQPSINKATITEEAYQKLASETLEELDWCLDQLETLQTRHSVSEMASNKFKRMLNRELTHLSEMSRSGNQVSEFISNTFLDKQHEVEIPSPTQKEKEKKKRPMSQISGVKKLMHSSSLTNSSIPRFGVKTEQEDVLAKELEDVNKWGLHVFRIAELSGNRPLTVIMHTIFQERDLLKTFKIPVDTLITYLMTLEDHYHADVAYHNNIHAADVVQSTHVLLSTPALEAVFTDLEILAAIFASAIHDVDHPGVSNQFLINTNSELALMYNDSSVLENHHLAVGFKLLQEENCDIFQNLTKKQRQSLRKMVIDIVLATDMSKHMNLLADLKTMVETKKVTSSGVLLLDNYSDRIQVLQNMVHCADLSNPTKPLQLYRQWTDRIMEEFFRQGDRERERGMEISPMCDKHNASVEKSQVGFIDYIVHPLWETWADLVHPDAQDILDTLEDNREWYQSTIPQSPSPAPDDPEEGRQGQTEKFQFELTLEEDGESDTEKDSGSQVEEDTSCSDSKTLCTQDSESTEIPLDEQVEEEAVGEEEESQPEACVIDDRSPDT
# Melanocortin receptor 3 = Melanocortin receptor 3 (Homo sapiens, UniProt P41968)
# Sequence of Melanocortin receptor 3 (P41968 whole entry): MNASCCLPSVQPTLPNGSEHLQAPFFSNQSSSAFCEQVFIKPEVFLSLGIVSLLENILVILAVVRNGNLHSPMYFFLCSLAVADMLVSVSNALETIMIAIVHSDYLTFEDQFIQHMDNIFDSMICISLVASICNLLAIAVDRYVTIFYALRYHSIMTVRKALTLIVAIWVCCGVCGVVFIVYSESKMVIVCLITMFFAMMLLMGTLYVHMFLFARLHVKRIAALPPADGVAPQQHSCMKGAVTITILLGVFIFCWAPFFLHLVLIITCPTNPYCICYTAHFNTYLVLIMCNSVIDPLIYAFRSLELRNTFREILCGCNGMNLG
# [6] = target: Sodium-dependent serotonin transporter (Homo sapiens, UniProt P31645)
# Sequence of Sodium-dependent serotonin transporter (P31645 whole entry): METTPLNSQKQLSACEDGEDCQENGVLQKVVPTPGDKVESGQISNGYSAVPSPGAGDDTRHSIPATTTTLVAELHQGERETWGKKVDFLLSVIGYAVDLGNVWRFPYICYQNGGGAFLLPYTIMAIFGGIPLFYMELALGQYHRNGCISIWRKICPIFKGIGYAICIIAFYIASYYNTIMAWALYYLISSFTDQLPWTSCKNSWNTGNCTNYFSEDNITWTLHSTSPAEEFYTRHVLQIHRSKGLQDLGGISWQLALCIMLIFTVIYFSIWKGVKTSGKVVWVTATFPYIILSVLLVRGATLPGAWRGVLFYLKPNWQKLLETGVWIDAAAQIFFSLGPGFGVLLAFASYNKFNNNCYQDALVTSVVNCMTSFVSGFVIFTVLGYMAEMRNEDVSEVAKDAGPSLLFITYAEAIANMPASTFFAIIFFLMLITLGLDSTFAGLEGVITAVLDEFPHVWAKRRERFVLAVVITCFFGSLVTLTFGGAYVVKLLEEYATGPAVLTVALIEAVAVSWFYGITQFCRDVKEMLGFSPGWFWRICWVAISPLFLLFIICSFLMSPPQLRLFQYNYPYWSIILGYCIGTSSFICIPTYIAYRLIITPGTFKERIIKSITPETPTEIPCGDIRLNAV
# Glucocorticoid receptor = target: T3, Glucocorticoid receptor (Homo sapiens, UniProt P04150)
# T3 sequence (P04150 whole entry): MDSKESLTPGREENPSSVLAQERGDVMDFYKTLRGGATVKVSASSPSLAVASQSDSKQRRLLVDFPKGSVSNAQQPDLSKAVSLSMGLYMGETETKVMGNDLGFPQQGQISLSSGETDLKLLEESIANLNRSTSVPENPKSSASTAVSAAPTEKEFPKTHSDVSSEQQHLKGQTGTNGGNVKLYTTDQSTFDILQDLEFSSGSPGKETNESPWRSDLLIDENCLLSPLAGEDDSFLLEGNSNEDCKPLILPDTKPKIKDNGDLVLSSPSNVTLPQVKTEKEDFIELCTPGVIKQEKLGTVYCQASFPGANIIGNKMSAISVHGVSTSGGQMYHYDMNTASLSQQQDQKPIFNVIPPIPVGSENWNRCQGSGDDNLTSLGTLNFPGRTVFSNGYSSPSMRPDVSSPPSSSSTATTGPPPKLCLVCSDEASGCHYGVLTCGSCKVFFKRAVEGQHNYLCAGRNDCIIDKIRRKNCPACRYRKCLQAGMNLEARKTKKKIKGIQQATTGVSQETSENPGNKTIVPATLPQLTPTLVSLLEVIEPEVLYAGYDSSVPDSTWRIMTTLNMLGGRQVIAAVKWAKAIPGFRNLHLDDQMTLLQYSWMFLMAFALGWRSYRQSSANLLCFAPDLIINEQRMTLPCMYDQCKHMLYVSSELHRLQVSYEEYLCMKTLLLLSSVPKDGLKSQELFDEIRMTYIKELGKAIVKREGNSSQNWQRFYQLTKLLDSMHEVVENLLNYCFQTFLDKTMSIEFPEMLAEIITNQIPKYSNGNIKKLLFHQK
# Progesterone receptor = target: T4, Progesterone receptor (Homo sapiens, UniProt P06401); assay type: functional
# T4 sequence (P06401 whole entry): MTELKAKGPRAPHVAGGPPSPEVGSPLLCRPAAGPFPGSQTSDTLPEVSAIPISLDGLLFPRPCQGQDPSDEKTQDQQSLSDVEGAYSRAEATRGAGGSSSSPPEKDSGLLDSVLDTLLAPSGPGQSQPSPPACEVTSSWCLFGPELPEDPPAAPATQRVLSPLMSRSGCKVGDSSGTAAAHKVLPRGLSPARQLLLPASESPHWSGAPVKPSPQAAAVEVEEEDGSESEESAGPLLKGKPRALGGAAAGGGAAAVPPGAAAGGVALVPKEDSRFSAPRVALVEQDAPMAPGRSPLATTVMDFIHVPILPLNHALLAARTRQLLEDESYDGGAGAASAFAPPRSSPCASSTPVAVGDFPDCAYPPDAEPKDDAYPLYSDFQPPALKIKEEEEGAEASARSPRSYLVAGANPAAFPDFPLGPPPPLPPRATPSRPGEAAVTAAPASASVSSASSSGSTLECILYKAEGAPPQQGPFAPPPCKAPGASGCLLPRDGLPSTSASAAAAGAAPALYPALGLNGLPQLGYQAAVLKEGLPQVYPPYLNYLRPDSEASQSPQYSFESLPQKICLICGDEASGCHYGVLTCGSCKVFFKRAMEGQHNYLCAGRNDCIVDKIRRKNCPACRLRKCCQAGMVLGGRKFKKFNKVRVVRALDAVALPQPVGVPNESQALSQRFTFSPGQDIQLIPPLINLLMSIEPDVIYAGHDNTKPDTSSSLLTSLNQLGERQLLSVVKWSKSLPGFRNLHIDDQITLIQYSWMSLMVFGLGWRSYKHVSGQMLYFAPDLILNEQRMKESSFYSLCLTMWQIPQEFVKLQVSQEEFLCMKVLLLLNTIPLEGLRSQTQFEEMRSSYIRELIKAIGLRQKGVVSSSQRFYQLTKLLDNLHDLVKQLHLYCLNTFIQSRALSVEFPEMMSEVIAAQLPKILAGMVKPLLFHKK
# Further: assay procedure not described here.
AC50 [1],AC50 (D(1A) dopamine receptor),AC50 [2],AC50 [3],AC50 [4],AC50 [5],AC50 (Melanocortin receptor 3),AC50 [6],AC50 (Glucocorticoid receptor),AC50 (Progesterone receptor),Compound
> 30 µM,> 10 µM,> 10 µM,> 10 µM,> 10 µM,> 30 µM,> 30 µM,> 10 µM,–,–,Cc1cc(-c2ccccc2)nnc1NCCN1CCOCC1 [MINAPRINE]
> 30 µM,> 30 µM,> 30 µM,> 30 µM,> 30 µM,> 30 µM,> 30 µM,–,> 30 µM,> 30 µM,COc1c(C)c2c(c(O)c1C/C=C(\C)CCC(=O)OCCN1CCOCC1)C(=O)OC2 [MYCOPHENOLATE MOFETIL]
> 10 µM,–,> 30 µM,> 30 µM,3.2 µM,> 30 µM,> 10 µM,> 10 µM,> 30 µM,–,O=C(O)CCCc1ccccc1 [PHENYLBUTANOIC ACID]
> 30 µM,> 30 µM,> 30 µM,> 30 µM,> 30 µM,> 30 µM,> 30 µM,–,> 30 µM,> 30 µM,CCCOc1ccc(C(=O)OCCN(CC)CC)cc1N [PROPARACAINE]
> 30 µM,> 10 µM,> 10 µM,1.31 µM,> 30 µM,> 30 µM,> 30 µM,> 30 µM,–,–,C1COC(NC(C2CC2)C2CC2)=N1 [RILMENIDINE]
> 30 µM,–,> 10 µM,–,> 10 µM,> 30 µM,> 30 µM,> 10 µM,> 30 µM,–,Cc1c(C(=O)Nc2ccc(N3C[C@@H](C)O[C@@H](C)C3)nc2)cccc1-c1ccc(OC(F)(F)F)cc1 [SONIDEGIB]
> 30 µM,> 30 µM,> 30 µM,> 30 µM,> 30 µM,> 30 µM,> 30 µM,–,> 30 µM,> 30 µM,CC[C@]1(O)C[C@@H]2CN(CCc3c([nH]c4ccccc34)[C@@](C(=O)OC)(c3cc4c(cc3OC)N(C)[C@H]3[C@@](O)(C(N)=O)[C@H](O)[C@]5(CC)C=CCN6CC[C@]43[C@@H]65)C2)C1 [VINDESINE]
> 30 µM,> 30 µM,> 30 µM,> 30 µM,> 30 µM,> 10 µM,> 30 µM,–,> 30 µM,> 30 µM,TOCOFERSOLAN

Compound,AC50 [1],AC50 (D(1A) dopamine receptor),AC50 [2],AC50 [3],AC50 [4],AC50 [5],AC50 (Melanocortin receptor 3),AC50 [6],AC50 (Glucocorticoid receptor),AC50 (Progesterone receptor)
Nc1nc2ccc(OC(F)(F)F)cc2s1 [RILUZOLE],> 30 µM,> 30 µM,> 30 µM,> 30 µM,> 30 µM,14 µM,> 30 µM,–,> 30 µM,> 30 µM
